In US12686690B2, “Macrocyclic urea orexin receptor agonists” (Merck Sharp & Dohme LLC, priority 2020, dated 2026) one finds hOX2R_Ipone max %act and EC50 data, which are given here for 20 compounds.

A word on the EC50: it is the midpoint of the concentration-response curve.

This test deals with T1, hOX2R (Homo sapiens, UniProt O43614).
T1 construct: expressed in transfected cells; host or cells: CHO cells (G418 selection)
T1 sequence (O43614 1-444): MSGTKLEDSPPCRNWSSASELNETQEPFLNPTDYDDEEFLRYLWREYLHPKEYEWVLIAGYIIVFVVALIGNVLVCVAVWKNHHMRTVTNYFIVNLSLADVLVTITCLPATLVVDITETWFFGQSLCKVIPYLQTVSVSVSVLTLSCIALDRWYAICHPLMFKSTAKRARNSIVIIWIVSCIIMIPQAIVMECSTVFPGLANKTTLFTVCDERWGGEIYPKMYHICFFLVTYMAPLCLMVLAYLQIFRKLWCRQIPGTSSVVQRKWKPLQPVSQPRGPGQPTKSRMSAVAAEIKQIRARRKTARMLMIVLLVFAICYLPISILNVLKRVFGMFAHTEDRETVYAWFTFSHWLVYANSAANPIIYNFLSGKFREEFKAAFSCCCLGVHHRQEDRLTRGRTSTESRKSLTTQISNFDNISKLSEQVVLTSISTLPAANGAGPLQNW
Kind of test: hOX2R IPone assay (orexin receptor agonism). The format is cell-based. To be noted: IPone readout; for hOX2R_Ipone max %act: maximal activation; for EC50: orexin receptor agonist, read-out: hOX2R_IPone EC50.

Molecules are shown by their SMILES.

In the case of `CCN1C(=O)N[C@@H](CCC(F)(F)F)CCCCCOc2nc(nn3ccnc23)-c2cc(cnc2OC)[C@H]1C` [Example 47, (3R,7R,E)-4-ethyl-22-methoxy-3-methyl-7-(3,3,3-trifluoropropyl)-13-oxa-4,6-diaza-1(2,4)-imidazo[2,1-f][1,2,4]triazina-2(3,5)-pyridinacyclotridecaphan-5-one], the hOX2R_Ipone max %act is given as 100.5% and the EC50 is 4.3 nM.
For `CCN1C(=O)NCCCCCOc2nc(cn3ccnc23)-c2cccc(c2)[C@H]1C` [Example 49, (12R)-13-ethyl-12-methyl-12,13,15,16,17,18,19,20-octahydro-14H-6,22-(azeno)-11,7-(metheno)imidazo[2,1-c][1,4,13,15]oxatriaza-cycloicosin-14-one], in that order: 74.7% and 42 nM.
In the same order, the values of `CCN1C(=O)N[C@@H](CCC(F)(F)F)CCCCCOc2cc(cn3ccnc23)-c2nc(ccc2OC)[C@H]1C` [Example 50, (3R,7R,E)-4-ethyl-23-methoxy-3-methyl-7-(3,3,3-trifluoropropyl)-13-oxa-4,6-diaza-1(6,8)-imidazo[1,2-a]pyridina-2(2,6)-pyridinacyclotridecaphan-5-one] are 98.7% and 0.8 nM.
In the same order, the values of `CCN1Cc2cnc(OC)c(c2)-c2cn3ccnc3c(n2)OCCCCC[C@H](CCC(F)(F)F)NC1=O` [Example 51] are 99.5% and 0.6 nM.
In the case of `CCN1C(=O)N[C@@H](C(F)(F)F)CCCCCOc2nc(cn3ccnc23)-c2cc(ncc2OC)[C@H]1C` [Example 77, (12R,16R)-13-ethyl-8-methoxy-12-methyl-16-(trifluoromethyl)-12,13,16,17,18,19,20, 21-octahydro-6,23-(azeno)-11,7-(metheno)imidazo[2,1-c][1,4,10,13,15]oxatet-raazacyclohenicosin-14(15H)-one], the hOX2R_Ipone max %act turned out to be 101.7% and the EC50 is 20.9 nM.
In the same order, the values of `CCN1C(=O)N[C@@H](CCC(F)(F)F)CCCCCOc2nc(cn3ccnc23)-c2cc(cnc2C)[C@H]1C` [Example 78, (12R,16R)-13-ethyl-8,12-dimethyl-16-(3,3,3-trifluoropropyl)-12,13,16,17,18,19,20, 21-octahydro-6,23-(azeno)-11,7-(metheno)imidazo[2,1-c][1,4,9,13,15]oxatet-raazacyclohenicosin-14(15H)-one] are 99.0% and 1.7 nM.
As to `CCN1C(=O)N[C@@H](CCC(F)(F)F)CCCCCOc2nc(cn3ccnc23)-c2cc(ncc2C)[C@H]1C` [Example 79, (12R,16R)-13-ethyl-8,12-dimethyl-16-(3,3,3-trifluoro-propyl)-12,13,16,17, 18,19,20,21-octa-hydro-6,23-(azeno)-11,7-(metheno) imidazo[2,1-c][1,4,10, 13,15]oxatetraazacyclo-henicosin-14(15H)-one], the hOX2R_Ipone max %act is recorded as 99.3% and the EC50 came out at 1 nM.
In the case of `CCN1C(=O)N[C@@H](CCC(F)(F)F)CCCCCCc2nc(cn3ccnc23)-c2cc(ncc2OC)[C@H]1C` [Example 81, (12R,16R)-13-ethyl-8-methoxy-12-methyl-16-(3,3,3-trifluoropropyl)-12,13,15,16,17,18,19, 20,21,22-decahydro-14H-6,23-(azeno)-11,7-(metheno) imidazo[1,2-l][1,3,6,12]tetraazacy-clohenicosin-14-one], the hOX2R_Ipone max %act is 100.1% and the EC50 came to 3.3 nM.
`CCN1C(=O)N[C@@H](CCC(F)(F)F)CCCCCOc2nc(cn3ncnc23)-c2cc(ncc2OC)[C@H]1C` [Example 82, (12R,16R)-13-ethyl-8-methoxy-12-methyl-16-(3,3,3-tri-fluoropropyl)-12,13, 16,17,18,19,20,21-octahydro-6,23-(azeno)-11,7-(metheno)[1,2,4]tria-zolo[5,1-c][1,4,10,13, 15]oxatetraazacyclo-henicosin-14(15H)-one]: the hOX2R_Ipone max %act is reported as 99.62% and the EC50 stood at 2.2 nM.
For `CCN1C(=O)N[C@@H](CCC(C)(F)F)CCCCCOc2nc(cn3ccnc23)-c2cc(ncc2OC)[C@H]1C` [Example 83, (12R,16R)-16-(3,3-difluorobutyl)-13-ethyl-8-methoxy-12-methyl-12,13,16,17, 18,19,20,21-octa-hydro-6,23-(azeno)-11,7-(metheno) imidazo[2,1-c][1,4,9,13,15]oxatetraazacy-clohenicosin-14(15H)-one], in that order: 100.7% and 1 nM.
For `CCN1C(=O)N[C@@H](CCC(C)(F)F)CCCCCOc2nc(cn3ccnc23)-c2ccnc(c2)[C@H]1C` [Example 84, (12R,16R)-16-(3,3-difluorobutyl)-13-ethyl-12-methyl-12, 13,16,17,18,19,20,21-octahydro-6,23-(azeno)-11,7-(metheno)imidazo[2,1-c][1,4,10,13,15] oxatetraazacycloheni-cosin-14(15H)-one], the hOX2R_Ipone max %act was found to be 99.1% and the EC50 was determined as 1.5 nM.
On to `CCN1C(=O)NCCCCCCOc2nc(cn3ccnc23)-c2cc(ncc2OC)[C@H]1C` [Example 85, (12R)-13-ethyl-8-methoxy-12-methyl-12,13,16,17,18,19,20, 21-octahydro-6,23-(azeno)-11,7-(metheno)imidazo[2,1-c][1,4,10,13,15] oxatetraazacycloheni-cosin-14(15H)-one], for which the hOX2R_Ipone max %act was 100.5% and the EC50 is 5.1 nM.
In the same order, the values of `CCN1C(=O)N[C@@H](CCC(F)(F)F)CCCCCOc2nc(c(C)n3ccnc23)-c2cc(cnc2OC)[C@H]1C` [Example 86, (12R,16R)-13-ethyl-8-methoxy-5,12-dimethyl-16-(3,3,3-trifluoropropyl)-12,13,16,17,18,19,20, 21-octahydro-6,23-(azeno)-11,7-(metheno)imidazo[2,1-c][1,4,9,13,15] oxatetraazacycloheni-cosin-14(15H)-one] are 99.3% and 3.5 nM.
On to `CCN1C(=O)N[C@@H](CCC(F)(F)F)CCCCCOc2nc(nn3ccnc23)-c2cccc(c2)[C@H]1C` [Example 87, (12R,16R)-13-ethyl-12-methyl-16-(3,3,3-trifluoropropyl)-12,13,16,17,18,19,20, 21-octahydro-6,23-(azeno)-11,7-(metheno)imidazo[2,1-c][1,4,5,13,15] oxatetraazacycloheni-cosin-14(15H)-one], for which the hOX2R_Ipone max %act is 100.6% and the EC50 worked out at 5.8 nM.
For `CCN1C(=O)N[C@@H](CCC(F)(F)F)CCCCCOc2cc(nn3ccnc23)-c2cc(cnc2OC)[C@H]1C` [Example 89, (12R,16R)-13-ethyl-8-methoxy-12-methyl-16-(3,3,3-trifluoropropyl)-12,13,16,17,18,19,20, 21-octahydro-6,23:11,7-di(metheno) imidazo[2,1-c][1,4,5,9,13,15]oxapentaaza-cyclohenicosin-14(15H)-one], in that order: 99.2% and 6.4 nM.
For `CCN1C(=O)N[C@@H](CCC(F)(F)F)CCCCCOc2nc(cn3ccnc23)-c2cccc(n2)C1C` (stereo partly drawn) [Example 90, (16R)-13-ethyl-12-methyl-16-(3,3,3-trifluoropropyl)-12,13,16,17,18,19,20, 21-octahydro-6,23:11,7-di(azeno) imidazo[2,1-c][1,4, 13,15]oxatriazacyclo-henicosin-14(15H)-one], in that order: 100.8% and 101 nM.
For `CCN1C(=O)N[C@@H](CCC(F)(F)F)CCCCCOc2cc(cn3ccnc23)-c2cc(cnc2OC)[C@H]1C` [Example 91, (12R,16R)-13-ethyl-8-methoxy-12-methyl-16-(3,3,3-trifluoropropyl)-12,13,16,17,18,19,20, 21-octahydro-6,23:11,7-di(metheno) imidazo[2,1-c][1,4,9, 13,15]oxatetraazacyclo-henicosin-14(15H)-one], in that order: 100.5% and 0.6 nM.
As to `CCN1C(=O)N[C@@H](CCC(F)(F)F)CCCCCOc2nc(cn3ccnc23)-c2nc(ncc2C)[C@@H]1C` [Example 93A, (12S,16R)-13-ethyl-8,12-dimethyl-16-(3,3,3-trifluoro-propyl)-12,13,16,17, 18,19,20,21-octa-hydro-6,23:11,7-di(azeno)imidazo[2,1-c][1,4,10,13,15]oxatet-raazacyclohenicosin-14(15H)-one], the hOX2R_Ipone max %act is given as 100.8% and the EC50 came out at 167 nM.
For `CCN1C(=O)N[C@@H](CCC(F)(F)F)CCCCCOc2nc(cn3ccnc23)-c2nc(ncc2C)[C@H]1C` [Example 93B, (12R,16R)-13-ethyl-8,12-dimethyl-16-(3,3,3-trifluoro-propyl)-12,13,16,17, 18,19,20,21-octa-hydro-6,23:11,7-di(azeno)imidazo[2,1-c][1,4,10,13,15]oxatet-raazacyclohenicosin-14(15H)-one], in that order: 100.6% and 1.8 nM.
As to `CCN1C(=O)N[C@@H](CCC(F)(F)F)CCCCCOc2nc(cn3ccnc23)C2=CN=C(S2)C1C` (stereo partly drawn) [Example 95, (15R)-12-ethyl-11-methyl-15-(3,3,3-trifluoropropyl)-11,12,15,16,17,18,19, 20-octahydro-6,22-(azeno)-7,10-epithioimidazo[2,1-c][1,4,9,12,14]oxatet-raazacycloicosin-13(14H)-one], the hOX2R_Ipone max %act came to 99.78% and the EC50 worked out at 25.4 nM.
